Data taken from BindingDB's records for doi:10.1016/j.bmc.2019.115216 (National and Kapodistrian University of Athens, 2020).

Biological target: Autotaxin (ENPP2) (Mus musculus) (UniProt Q9R1E6)
Test: Inhibition of recombinant mouse N-terminal polyHis-tagged ATX-beta (Ser49 to Ile862 residues) expressed in HEK293 cells assessed as reduction in cleavage of LPC into LPA and choline using LPC(16:0) as substrate by Amplex red reagent based fluorescence assay

SMILES	IC50
O=C(O)c1ccc(COc2ccc(CNC(=O)[C@@H]3CCC(=O)N3Cc3ccccc3)cc2)cc1	4.5 µM
O=C(O)c1ccc(COc2ccc(CNC(=O)[C@H]3CCC(=O)N3Cc3ccccc3)cc2)cc1	> 5 µM
O=C(O)c1ccc(COc2ccc(CNC(=O)[C@@H]3CCC(=O)N3Cc3ccc(Br)cc3)cc2)cc1	> 5 µM
O=C(O)c1ccc(COc2ccc(CNC(=O)[C@@H]3CCC(=O)N3Cc3ccc(F)cc3)cc2)cc1	> 5 µM
O=C(O)c1ccc(COc2ccc(CNC(=O)[C@@H]3CCC(=O)N3Cc3ccc(C(F)(F)F)cc3)cc2)cc1	> 5 µM
O=C1CC[C@@H](C(=O)NCc2ccc(OCc3ccc(C(=O)O)cc3)cc2)N1	> 5 µM
COC(=O)c1ccc(COc2ccc(CNC(=O)[C@@H]3CCC(=O)N3Cc3ccccc3)cc2)cc1	> 5 µM
NS(=O)(=O)c1ccc(COc2ccc(CNC(=O)[C@@H]3CCC(=O)N3Cc3ccccc3)cc2)cc1	> 5 µM
NS(=O)(=O)c1ccc(COc2ccc(CNC(=O)[C@@H]3CCC(=O)N3Cc3ccc(F)cc3)cc2)cc1	> 5 µM
NS(=O)(=O)c1ccc(COc2ccc(CNC(=O)[C@@H]3CCC(=O)N3Cc3ccc(C(F)(F)F)cc3)cc2)cc1	> 5 µM
CC1(C)OB(c2ccc(COc3ccc(CNC(=O)[C@@H]4CCC(=O)N4Cc4ccccc4)cc3)cc2)OC1(C)C	0.05 µM
CC1(C)OB(c2ccc(COc3ccc(CNC(=O)[C@@H]4CCC(=O)N4Cc4ccc(F)cc4)cc3)cc2)OC1(C)C	0.12 µM
CC1(C)OB(c2ccc(COc3ccc(CNC(=O)[C@H]4CCC(=O)N4Cc4ccccc4)cc3)cc2)OC1(C)C	0.18 µM
O=C(NCc1ccc(OCc2ccccc2)cc1)[C@@H]1CCC(=O)N1Cc1ccccc1	> 5 µM
O=C(NCCc1c[nH]cn1)c1ccc(COc2ccc(CNC(=O)[C@@H]3CCC(=O)N3Cc3ccccc3)cc2)cc1	> 5 µM
O=C(NCCc1c[nH]cn1)c1ccc(COc2ccc(CNC(=O)[C@@H]3CCC(=O)N3Cc3ccc(F)cc3)cc2)cc1	> 5 µM
O=C(NO)c1ccc(COc2ccc(CNC(=O)[C@@H]3CCC(=O)N3Cc3ccccc3)cc2)cc1	0.7 µM
O=C(NCc1ccc(OCc2ccc(-c3nn[nH]n3)cc2)cc1)[C@@H]1CCC(=O)N1Cc1ccccc1	> 5 µM

SMILES	IC50
O=C(NCc1ccc(OCc2ccc(-c3nn[nH]n3)cc2)cc1)[C@@H]1CCC(=O)N1Cc1ccc(F)cc1	> 5 µM
O=C(NCc1ccc(OCc2cn(-c3ccccc3)nn2)cc1)[C@@H]1CCC(=O)N1Cc1ccccc1	> 5 µM
O=C(NCc1ccc(OCc2ccncc2)cc1)[C@@H]1CCC(=O)N1Cc1ccccc1	> 5 µM
O=C(NCc1ccc(OCc2ccc(B(O)O)cc2)cc1)[C@@H]1CCC(=O)N1Cc1ccccc1	0.035 µM
O=C(O)c1ccc(COc2ccc(CN3C(=O)CC[C@H]3C(=O)NCc3ccccc3)cc2)cc1	> 5 µM
O=C(NCc1ccccc1)[C@@H]1CCC(=O)N1Cc1ccc(OCc2ccc(-c3nn[nH]n3)cc2)cc1	> 5 µM
NS(=O)(=O)c1ccc(C(=O)NC[C@@H]2CCC(=O)N2Cc2ccccc2)cc1	> 5 µM
COC(=O)c1ccc(COc2ccc(CN3C(=O)CC[C@H]3Cn3ccnc3)cc2)cc1	> 5 µM
O=C(O)c1ccc(COc2ccc(CN3C(=O)CC[C@H]3Cn3ccnc3)cc2)cc1	> 5 µM
O=C(NCc1ccccc1)[C@@H]1CCC(=O)N1Cc1ccccc1	> 5 µM
O=C(NCc1ccc(O)cc1)[C@@H]1CCC(=O)N1Cc1ccccc1	> 5 µM
O=C(O)c1ccc(COc2ccc(CNC(=O)[C@@H]3CCCN3Cc3ccccc3)cc2)cc1	> 5 µM
O=C(O)c1ccc(COc2ccc(CNC(=O)[C@@H]3CCCN3Cc3ccc(F)cc3)cc2)cc1	0.8 µM
O=C(O)c1ccc(COc2ccc(CNC(=O)[C@H]3CCCN3Cc3ccc(F)cc3)cc2)cc1	> 5 µM
O=C(NCc1ccc(OCc2ccc(-c3nn[nH]n3)cc2)cc1)[C@@H]1CCCN1Cc1ccccc1	> 5 µM
O=C(O)c1ccc(COc2ccc(CN3CCC[C@H]3C(=O)NCc3ccccc3)cc2)cc1	> 5 µM
O=C(NCc1ccccc1)[C@@H]1CCCN1Cc1ccc(OCc2ccc(-c3nn[nH]n3)cc2)cc1	> 5 µM
